Measured values: patent US20200330420A1, “LONG CHAIN FATTY ACID FORMULATIONS AND THEIR USE IN INHIBITING SALMONELLA INFECTION” (priority 2019, published 2020)

Key:
hilA expression = assay: Luciferase assay, hilA::luxCDABE reporter fusion; type: cell-based
From the text: (§1) Strains. Salmonella enterica subsp. enterica serovar Typhimurium 14028s, and mutants thereof, were used throughout. Deletion mutants were constructed as previously described (K. A. Datsenko et al., PNAS USA, 97(12), 6640-6645, 2000). Briefly, PCR fragments of kanamycin and chloramphenicol resistance genes containing 40 base pair homology extensions flanking the gene of interest were generated using pKD4 and pKD3 plasmids. The PCR fragments were transformed into a strain expressing λ Red recombinase. Loss of the gene of interest was confirmed using PCR. Unmarked mutants were generated using a helper plasmid pCP20 carrying a gene encoding the FLP recombinase. Marked deletions and constructs were transferred using bacteriophage P22 transduction (N. L. Sternberg et al., Methods Enzymol., 204, 18-43, 1991).
(§2) Luciferase assays. Strains carrying luxCDABE reporter fusions were grown overnight in LB with the necessary antibiotics. Overnight cultures were diluted 100-fold into M9 minimal medium with glucose, antibiotics and 1 mM nonanoic acid (added to repress SPI invasion gene expression to eliminate background luminescence), and grown overnight. The cultures were washed three times with PBS. Bacteria were inoculated at a starting OD600 of 0.02 into 150 μL of LB containing 100 mM MOPS pH 6.7, the necessary antibiotics and compounds to be tested, in a sealed black-walled 96 well plate. Luminescence was measured every 30 minutes for 24 hours using a Biotek Synergy™ H1 microplate reader.

sopB expression = assay: Luciferase assay, sopB::luxCDABE reporter fusion; type: cell-based; conditions: ΔhilD mutant, rtsA under tetracycline-inducible promoter; 20 μM; FIG. 4A
From the text: as §1
as §2, with “Bacteria were inoculated at a starting OD600 of 0.02 into 150 μL of LB containing 100 mM MOPS pH 6.7, the necessary antibiotics and compounds to be tested, in a sealed black-walled 96 well plate.” left out

HilC = HilC (Salmonella typhimurium, UniProt P0CL09); assay: Electrophoretic mobility shift assay, HilC binding to hilA promoter DNA; conditions: FIG. 7
Experimental: (§3) Electrophoretic mobility shift assays (EMSAs). EMSAs were performed as previously described (Y. A. Golubeva et al., M Bio, 7(1), 2016). Briefly, 10 nM of hilA promoter DNA was mixed with 150 μM HilD, HilC or RtsA in a binding buffer containing 20 mM KCl, 1% glycerol, 1 mM DTT, 0.04 mM EDTA, 0.05% Tergitol™ NP-40 and 20 mM HEPES, pH 7.3. cis-2-hexadecenoic acid was tested at concentrations of […] Binding was performed at room temperature for 20 minutes. Samples were separated on 6% Novex® TBE DNA retardation gels, and DNA was stained using SYBR® green (Invitrogen).

RtsA = assay: Electrophoretic mobility shift assay, RtsA binding to hilA promoter DNA; design: species or system Salmonella; conditions: FIG. 7
Experimental: as §3

HilD [1] = molecular target: T1, HilD (Salmonella typhimurium, UniProt P0CL08); assay: Electrophoretic mobility shift assay, HilD binding to hilA promoter DNA; design: 6xHis-NusA (followed by an HRV 3C protease site) (N, cleaved yes); made in house; host or cells: E. coli BL21(DE3), vector pCAV4; conditions: FIG. 7
HilD [2] = molecular target: T1, HilD; assay: HilD half-life assay (western blot of HilD-3xFLAG); type: cell-based; design: expressed in transfected cells; host or cells: Salmonella Typhimurium 14028s derivative carrying PtetRA-hilD-3xFLAG, with Lon present or absent; conditions: Lon mutant (absence of Lon); 20 μM; FIG. 5A
[3] = chain length comparison, FIG. 1E
[4] = hilD only: ΔrtsA ΔhilC, hilD under tetracycline-inducible promoter, 20 μM, FIG. 4C
[5] = 10, 25, 50 and 75 μM fatty acid

T1 sequence (P0CL08 whole entry): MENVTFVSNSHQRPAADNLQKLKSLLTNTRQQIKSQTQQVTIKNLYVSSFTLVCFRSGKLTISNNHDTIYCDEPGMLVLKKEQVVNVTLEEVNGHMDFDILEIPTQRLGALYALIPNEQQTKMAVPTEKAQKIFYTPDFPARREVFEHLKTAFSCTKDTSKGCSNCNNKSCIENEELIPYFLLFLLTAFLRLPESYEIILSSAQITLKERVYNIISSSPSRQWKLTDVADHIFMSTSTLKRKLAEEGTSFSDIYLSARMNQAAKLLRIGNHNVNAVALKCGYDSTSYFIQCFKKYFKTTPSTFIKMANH
HilC, sequence (P0CL09 whole entry): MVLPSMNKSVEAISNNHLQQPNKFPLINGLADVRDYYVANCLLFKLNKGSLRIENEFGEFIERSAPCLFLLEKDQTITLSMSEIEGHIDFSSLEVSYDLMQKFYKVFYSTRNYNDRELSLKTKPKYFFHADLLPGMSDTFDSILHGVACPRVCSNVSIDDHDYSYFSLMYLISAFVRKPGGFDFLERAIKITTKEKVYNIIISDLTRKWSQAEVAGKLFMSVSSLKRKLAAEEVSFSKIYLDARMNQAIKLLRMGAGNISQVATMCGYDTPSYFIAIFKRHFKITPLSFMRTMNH

CCCCCCCCCCCCC/C=C\C(=O)O [c2-HDA, Cis-2-hexadecenoic acid]
repression of hilA expression (hilA expression; 1 μM, FIG. 1B): 80 fold
reduction of hilA expression (hilA expression; [3]): 159 fold
reduction of hilA expression (hilA expression; hilC only (tetracycline-inducible), null hilD and rtsA, FIG. 6B): 20 fold
repression of hilA in a hilD mutant (hilA expression; hilD mutant, FIG. 4A): modest repression
repression of hilA expression (hilA expression; [4]): 78 fold
reduction of hilA expression (hilA expression; rtsA only (tetracycline-inducible), null hilD and hilC, FIG. 6A): 13 fold
repression of hilA expression (hilA expression; Δlon mutation, 20 μM, FIG. 5B): continued to repress hilA expression
repression of sopB expression (sopB expression): 11 fold
binding of HilC to the hilA promoter (HilC; 100 μM fatty acid): prevented binding to the hilA promoter
binding of HilC to the hilA promoter (HilC; [5]): partially
binding of RtsA to the hilA promoter (RtsA; 100 μM fatty acid): prevented binding to the hilA promoter
binding of RtsA to the hilA promoter (RtsA; [5]): partially
binding of HilD to the hilA promoter (HilD [1]; 20 μM fatty acid, 10 nM hilA promoter DNA): completely inhibited from binding hilA promoter DNA
binding of HilD to the hilA promoter (HilD [1]; 1, 2, 5 and 10 μM fatty acid): partially
effect on HilD stability (HilD [2]): no effect on its stability

CCCCCCC/C=C\C(=O)O [cis-2-decenoic acid]
reduction of hilA expression (hilA expression; [3]): 28%

CCCCCCCCC/C=C\C(=O)O [cis-2-dodecenoic acid]
reduction of hilA expression (hilA expression; [3]): 3 fold

CCCCCCCCCCCCCCCCC/C=C\C(=O)OC [cis-2-eicosenoic acid methyl ester, reference compound]
repression of hilA expression (hilA expression; 40 μM methyl ester, FIG. 2B): not to significantly repress hilA expression

CCCCCCCCCCCCCCCCC/C=C\C(=O)O [cis-2-eicosenoic acid]
reduction of hilA expression (hilA expression; [3]): 10 fold
repression of hilA expression (hilA expression; [4]): 3 fold

CCCCCCCCCCCCC/C=C\C(=O)OC [cis-2-hexadecenoic acid methyl ester, reference compound]
repression of hilA expression (hilA expression; 20 μM methyl ester, FIG. 2A): not to significantly repress hilA expression

CCCCCCCC/C=C\CCCCCCCC(=O)O [oleic acid, cis-9-octadecenoic acid, reference compound]
repression of hilA expression (hilA expression; [4]): 1.2 fold

CCCCCCCCCCCCC/C=C/C(=O)O [trans-2-hexadecenoic acid, reference compound]
less potent in repressing hilA than the cis-isomer (hilA expression; FIG. 1A, 20 μM fatty acids per legend): 31 fold
